Assay results from US20250333702A1, “CELLS WITH INCREASED IMMUNO-REGULATORY PROPERTIES AND METHODS FOR THEIR USE AND MANUFACTURE” (The Children's Medical Center Corporation, priority 2015, published 2025).
Structures can show the parent of a compound that is named as a salt.

Tests used:
Type in all cases: cell-based
IDO-1 = IDO-1 mRNA level (RT-qPCR) in CD34+ cells after ex vivo treatment with agent; details: mRNA by RT-qPCR, normalized against untreated cells; human CD34+ cells, 24 hours at 37° C.
Description: (§1) Human CD34+ stem and progenitor cells isolated from mobilized peripheral blood from three donors were ex vivo treated in […]® (StemCell Technologies) for 24 hours at 37° C. with one or more exogenous agents. Following cell treatments, gross mRNA levels were normalized against gross mRNA levels from the untreated cells […]. Levels of PD-L1 or IDO-1 mRNA were quantified from PICOPURE® isolated mRNA (Life Technologies) using an Assay on Demand TAQMAN® RT-qPCR assay (Life Technologies).

[1] = system: Human CD34+ stem and progenitor cells; experiment: Viability of CD34+ cells after ex vivo treatment with agent; design: concentration or dose not given beside the values; details: human CD34+ cells from mobilized peripheral blood, 24 hours at 37° C. with agent
PD-L1 (CD274) = experiment: PD-L1 mRNA level (RT-qPCR) in CD34+ cells after ex vivo treatment with agent; details: mRNA by RT-qPCR, normalized against untreated cells; human CD34+ cells, 24 hours at 37° C.
Description: as §1

| Compound | IDO-1 fold change (IDO-1) | % Viability ([1]; Table 2) | PD-L1 fold change (PD-L1 (CD274)) | % Viability ([1]; Table 1) |
| --- | --- | --- | --- | --- |
| Nc1ccn([C@@H]2O[C@H](CO)[C@@H](O)C2(F)F)c(=O)n1 [Gemcitabine] | 30.13 fold | 81.4% | – | – |
| N#Cc1ccc(C(c2ccc(C#N)cc2)n2cncn2)cc1 [Letrozole] | 4.38 fold | 81.3% | – | – |
| Cc1scc2c1N(C(=O)CN1CCN(C)CC1)c1ccccc1NC2=O [Telenzepine] | 4.82 fold | 88.9% | – | – |
| CN[C@@H]1[C@H](O[C@H]2[C@H](O[C@H]3[C@H](O)[C@@H](O)[C@H](NC(=N)N)[C@@H](O)[C@@H]3NC(=N)N)O[C@@H](C)[C@]2(O)CO)O[C@@H](CO)[C@H](O)[C@H]1O [Dihydrostreptomycin sulfate] | 6.19 fold | 84.5% | – | – |
| Nc1nc(F)nc2c1ncn2[C@@H]1O[C@H](CO)[C@@H](O)[C@@H]1O [Fludarabine] | 4.22 fold | 82.5% | – | – |
| CCC(=O)O[C@]1(C(=O)CCl)[C@@H](C)C[C@H]2[C@@H]3CCC4=CC(=O)C=C[C@]4(C)[C@@]3(F)[C@@H](O)C[C@@]21C [Clobetasol propionate] | – | – | 9.27 fold | 83% |
| CNCCCC1c2ccccc2C=Cc2ccccc21 [Protriptyline] | 5.74 fold | 79.4% | – | – |
| OCCN1CCN(CCCN2c3ccccc3Sc3ccc(C(F)(F)F)cc32)CC1 [Fluphenazine] | 14.19 fold | 86% | 7.58 fold | 86% |
| NC(=O)N/N=C/c1ccc([N+](=O)[O-])o1 [Nitro fural] | – | – | 10.28 fold | 87.2% |
| Tyrphostin AG 835 | – | – | 32.57 fold | 61.3% |
| CNC(C)CCC=C(C)C.CNC(C)CCC=C(C)C.O=C(O)[C@@H](O)[C@H](O)[C@H](O)[C@@H](O)C(=O)O [Isometheptene mucate] | 6.98 fold | 83.7% | – | – |
| C=CC(N)CCC(=O)O (stereo not drawn) [Vigabatrin] | – | – | 16.76 fold | 67% |
| C[C@H]1C[C@H]2[C@@H]3CCC4=CC(=O)C=C[C@]4(C)[C@@]3(F)[C@@H](O)C[C@]2(C)[C@@]1(O)C(=O)CO [Betamethasone] | – | – | 4.16 fold | 86.8% |
| CC1(C)O[C@@H]2C[C@H]3[C@@H]4C[C@H](F)C5=CC(=O)C=C[C@]5(C)[C@@]4(F)[C@@H](O)C[C@]3(C)[C@]2(C(=O)CO)O1 [Fluocinolone acetonide] | – | – | 10.58 fold | 82.9% |
| CN(C)CCC=C1c2ccccc2C=Cc2ccccc21 [Cyclobenzaprine] | 4.65 fold | 72.7% | – | – |
| Nc1ccc(C(=O)O)c(O)c1 [4-aminosalicylic acid] | 4.07 fold | 85.3% | – | – |
| C[C@@H]1C[C@H]2[C@@H]3C[C@H](F)C4=CC(=O)C=C[C@]4(C)[C@@]3(Cl)[C@@H](O)C[C@]2(C)[C@H]1C(=O)COC(=O)C(C)(C)C [Clocortolone pivalate] | – | – | 8.64 fold | 84.9% |
